Assay results published in patent publication US8415312B2, “Compound which is a nystatin derivative” (Biosergen AS, priority 2007, dated 2013).
Values after ≈ are worked out from the molar mass of the structure shown.

Experiments:
[1] = tested on: mice (C57B1/6xDBA/2)F1 B6D2F1; conditions: single injection into tail vein, probit analysis
Description: Male mice of hybrids of first generation (C57B1/6xDBA/2)F1 B6D2F1, weight 20-22 g., received from the Central farm. “Kryukovo” of Russian Academies of Medical Science (RAMS) were used. Animals were maintained in a vivarium in plastic cages (with hardwood bedding in environmentally controlled conditions: 24±1° C., 12/12 hours light/dark cycle) on a standard diet of bricketed forages with easy access to drinking water (ad libitum). After a 2-week quarantine period, healthy animals were used in experimental work.
The solutions were prepared as follows: dry antibiotic substances (5 mg) were mixed with dry sodium deoxycholate (4.1 mg) in a sterile glass vial. 10 mL of phosphate buffer (NaH2PO4—1.59 g; Na2HPO4—0.96 g; H2O—to 100 mL) was added to the mix and the suspension was immediately subjected to vigorous shaking for 10 minutes until homogeneous suspensions were formed.
Preparations of amphotericin B and S44HP were also prepared in the same way.
The antibiotic preparations were singly injected into the mice's tail vein within 1-1.5 hours after the preparation of solutions. […] Each antibiotic was used in a range of doses resulting in 0% to 100% lethality and a minimum of 3 intermediate doses. Animals were randomized into groups, each containing 6 mice.

[2] = tested on: Candida albicans ATCC 14053; assay: Antifungal susceptibility study (1), broth microdilution MIC; format: cell-based; conditions: lowest concentration preventing any visible growth, read at 48 hours, 35° C., RPMI 1640 pH 7.0
Description: (§1) ACROS ORGANICS, New Jersey, USA), pH 7.0, was used in study. […] Then these DMSO solutions were diluted 50-fold (first 10-fold and then 5-fold) in the test medium. […] The solutions were prepared just before using. The organisms used for susceptibility testing were: Candida albicans ATCC 14053, Cryptococcus humicolus ATCC 9949, Aspergillus niger ATCC 16404 and Fusarium oxysporum VKM F-140 (=CMI, IMI 90473). Organisms were stored on potato dextrose agar […] 50% glycerol solution at -70° C. For short-term storage, stock cultures were stored on agar […] 4° C. The cultures of yeasts were sub-cultured onto Sabouraud dextrose (SAB) agar and incubated for 24 hours at 35° C. (Candida albicans) or for 48 hours at 25° C. (Cryptococcus humicolus) to obtain a freshly grown pure culture. The cultures of moulds were sub-cultured onto potato dextrose agar and incubated for 7 days at 35° C. […] (Fusarium oxysporum) to ensure maximum sporulation. […] Inoculum quantitation was performed by plating dilution of the inoculum on Sabouraud dextrose agar to determine the viable number of CFU per milliliter. Sterile 96-well flat-bottomed microtitration plates were used for testing. 100 μl of diluted inocula were dispensed into each microdilution well containing 100 μl of the double dilutions of compounds. Drug-free and yeast/mould-free controls were included. Microdilution trays were incubated at 35° C. (Candida albicans and moulds) or 25° C. (Cryptococcus humicolus) without agitation and observed for the presence or absence of visible growth. […] Minimal inhibitory concentrations (MICs) were read at 48 hours.

[3] = tested on: Cryptococcus humicolus ATCC 9949; assay: as above; format: cell-based; conditions: lowest concentration preventing any visible growth, read at 48 hours, 25° C., RPMI 1640 pH 7.0
Description: as §1

[4] = tested on: Aspergillus niger ATCC 16404; assay: as above; format: cell-based; conditions: lowest concentration preventing any visible growth, read at 48 hours, 35° C., RPMI 1640 pH 7.0
Description: (§2) ACROS ORGANICS, New Jersey, USA), pH 7.0, was used in study. […] Then these DMSO solutions were diluted 50-fold (first 10-fold and then 5-fold) in the test medium. […] The solutions were prepared just before using. The organisms used for susceptibility testing were: Candida albicans ATCC 14053, Cryptococcus humicolus ATCC 9949, Aspergillus niger ATCC 16404 and Fusarium oxysporum VKM F-140 (=CMI, IMI 90473). Organisms were stored on potato dextrose agar […] 50% glycerol solution at -70° C. For short-term storage, stock cultures were stored on agar […] 4° C. The cultures of yeasts were sub-cultured onto Sabouraud dextrose (SAB) agar and incubated for 24 hours at 35° C. (Candida albicans) or for 48 hours at 25° C. (Cryptococcus humicolus) to obtain a freshly grown pure culture. The cultures of moulds were sub-cultured onto potato dextrose agar and incubated for 7 days at 35° C. […] (Fusarium oxysporum) to ensure maximum sporulation. […] Finally, the suspensions were vortexed for 15 s to break up clumps of cells and then filtered through four layers of sterile gauze. The densities of conidial spore suspensions was measured at 530 nm and adjusted to 0.09-0.11 for Aspergillus niger and 0.15-0.17 for Fusarium oxysporum. These suspensions were diluted 1:50 with the standard medium. […] Inoculum quantitation was performed by plating dilution of the inoculum on Sabouraud dextrose agar to determine the viable number of CFU per milliliter. Sterile 96-well flat-bottomed microtitration plates were used for testing. 100 μl of diluted inocula were dispensed into each microdilution well containing 100 μl of the double dilutions of compounds. Drug-free and yeast/mould-free controls were included. Microdilution trays were incubated at 35° C. (Candida albicans and moulds) or 25° C. (Cryptococcus humicolus) without agitation and observed for the presence or absence of visible growth. […] Minimal inhibitory concentrations (MICs) were read at 48 hours.

[5] = tested on: Fusarium oxysporum VKM F-140; assay: as above; format: cell-based; conditions: lowest concentration preventing any visible growth, read at 48 hours, 35° C., RPMI 1640 pH 7.0
Description: as §2

CC1C=CC=CC=CC=CC=CC=CC=CC(OC2OC(C)C(O)C(N)C2O)CC2OC(O)(CC(O)CCCC(O)CC(O)CC(O)CC(=O)OC(C)C(C)C1O)CC(O)C2C(=O)NCCN(C)C.NC(CCC(=O)O)C(=O)O (stereo not shown) [Compound 27]
LD50 [1]: 20.6 mg/kg | MTD [1]: 10.8 mg/kg

CC1C=CC=CC=CC=CC=CC=CC=CC(OC2OC(C)C(O)C(N)C2O)CC2OC(O)(CC(O)C(O)CCC(O)CC(O)CC(O)CC(=O)OC(C)C(C)C1O)CC(O)C2C(=O)NCCN(C)C.NC(CCC(=O)O)C(=O)O (stereo not shown) [Compound 28]
LD50 [1]: 22.1 mg/kg | MTD [1]: 14.7 mg/kg

CC1O[C@@H](O[C@H]2/C=C/C=C/C=C/C=C/C=C/C=C/C=C/[C@H](C)[C@@H](O)[C@@H](C)[C@H](C)OC(=O)C[C@H](O)C[C@H](O)C[C@H](O)CC[C@@H](O)[C@H](O)C[C@]3(O)C[C@H](O)[C@@H](C)[C@H](C2)O3)[C@H](O)C(N)[C@@H]1O.Cl (stereo partly shown) [Compound 53, Compound 1 Hydrochloride]
MIC Candida albicans ATCC 14053 [2]: 2 µg/mL | MIC Cryptococcus humicolus ATCC 9949 [3]: 2 µg/mL | MIC Aspergillus niger ATCC 16404 [4]: 4 µg/mL | MIC Fusarium oxysporum VKM F-140 [5]: 4 µg/mL

CC1C=CC=CC=CC=CC=CC=CC=CC(OC2OC(C)C(O)C(NC(=O)C(N)CCCCN)C2O)CC2OC(O)(CC(O)C(O)CCC(O)CC(O)CC(O)CC(=O)OC(C)C(C)C1O)CC(O)C2C(=O)NCCCN(C)C [Compound 33, N-L-lysyl S44HP DMAP-Amide]
MIC Candida albicans ATCC 14053 [2]: 1 µg/mL (≈ 0.88 µM) | MIC Cryptococcus humicolus ATCC 9949 [3]: 1 µg/mL (≈ 0.88 µM) | MIC Aspergillus niger ATCC 16404 [4]: 1 µg/mL (≈ 0.88 µM) | MIC Fusarium oxysporum VKM F-140 [5]: 2 µg/mL (≈ 1.76 µM)

CC1O[C@@H](O[C@H]2/C=C/C=C/C=C/C=C/C=C/C=C/C=C/[C@H](C)[C@@H](O)[C@@H](C)[C@H](C)OC(=O)C[C@H](O)C[C@H](O)C[C@H](O)CC[C@@H](O)[C@H](O)C[C@]3(O)C[C@H](O)[C@@H](C(=O)NCCN(C)C)[C@H](C2)O3)[C@H](O)C(NCC2(O)OC[C@@H](O)[C@H](O)[C@@H]2O)[C@@H]1O (stereo partly shown) [Compound 42, N-tagatopyronosyl S44HP DMAE amide]
MIC Candida albicans ATCC 14053 [2]: 0.5 µg/mL (≈ 0.432 µM) | MIC Cryptococcus humicolus ATCC 9949 [3]: 1 µg/mL (≈ 0.865 µM) | MIC Aspergillus niger ATCC 16404 [4]: 1 µg/mL (≈ 0.865 µM) | MIC Fusarium oxysporum VKM F-140 [5]: 2 µg/mL (≈ 1.73 µM)

CC1C=CC=CC=CC=CC=CC=CC=CC(OC2OC(C)C(O)C(NCc3ccc(N(C)C)cc3)C2O)CC2OC(O)(CC(O)C(O)CCC(O)CC(O)CC(O)CC(=O)OC(C)C(C)C1O)CC(O)C2C(=O)NCCCO (stereo not shown) [Compound 37]
MIC Candida albicans ATCC 14053 [2]: 2 µg/mL (≈ 1.79 µM) | MIC Cryptococcus humicolus ATCC 9949 [3]: 1 µg/mL (≈ 0.897 µM) | MIC Aspergillus niger ATCC 16404 [4]: 2 µg/mL (≈ 1.79 µM) | MIC Fusarium oxysporum VKM F-140 [5]: 4 µg/mL (≈ 3.59 µM)

CC1C=CC=CC=CC=CC=CC=CC=CC(OC2OC(C)C(O)C(NCC3(O)OCC(O)C(O)C3O)C2O)CC2OC(O)(CC(O)C(O)CCC(O)CC(O)CC(O)CC(=O)OC(C)C(C)C1O)CC(O)C2C(=O)NCCCN(C)C (stereo not shown) [Compound 31, N-tagatopyronosyl S44HP DMAP amide]
MIC Candida albicans ATCC 14053 [2]: 1 µg/mL (≈ 0.854 µM) | MIC Cryptococcus humicolus ATCC 9949 [3]: 2 µg/mL (≈ 1.71 µM) | MIC Aspergillus niger ATCC 16404 [4]: 2 µg/mL (≈ 1.71 µM) | MIC Fusarium oxysporum VKM F-140 [5]: 4 µg/mL (≈ 3.42 µM)

CC1C=CC=CC=CC=CC=CC=CC=CC(OC2OC(C)C(O)C(NC(=O)CN(C)C)C2O)CC2OC(O)(CC(O)C(O)CCC(O)CC(O)CC(O)CC(=O)OC(C)C(C)C1O)CC(O)C2C(=O)NCCCN(C)C (stereo not shown) [Compound 34]
MIC Candida albicans ATCC 14053 [2]: 1 µg/mL (≈ 0.915 µM) | MIC Cryptococcus humicolus ATCC 9949 [3]: 2 µg/mL (≈ 1.83 µM) | MIC Aspergillus niger ATCC 16404 [4]: 1 µg/mL (≈ 0.915 µM) | MIC Fusarium oxysporum VKM F-140 [5]: 4 µg/mL (≈ 3.66 µM)

COC(=O)C(NC(=O)C1C(O)CC2(O)CC(O)C(O)CCC(O)CC(O)CC(O)CC(=O)OC(C)C(C)C(O)C(C)C=CC=CC=CC=CC=CC=CC=CC(OC3OC(C)C(O)C(N)C3O)CC1O2)C(C)C (stereo not shown) [Compound 8]
MIC Candida albicans ATCC 14053 [2]: 2 µg/mL (≈ 1.93 µM) | MIC Cryptococcus humicolus ATCC 9949 [3]: 2 µg/mL (≈ 1.93 µM) | MIC Aspergillus niger ATCC 16404 [4]: 4 µg/mL (≈ 3.86 µM) | MIC Fusarium oxysporum VKM F-140 [5]: 8 µg/mL (≈ 7.71 µM)

COC(=O)C(C)NC(=O)C1C(O)CC2(O)CC(O)C(O)CCC(O)CC(O)CC(O)CC(=O)OC(C)C(C)C(O)C(C)C=CC=CC=CC=CC=CC=CC=CC(OC3OC(C)C(O)C(N)C3O)CC1O2 (stereo not shown) [Compound 10]
MIC Candida albicans ATCC 14053 [2]: 2 µg/mL (≈ 1.98 µM) | MIC Cryptococcus humicolus ATCC 9949 [3]: 2 µg/mL (≈ 1.98 µM) | MIC Aspergillus niger ATCC 16404 [4]: 4 µg/mL (≈ 3.96 µM) | MIC Fusarium oxysporum VKM F-140 [5]: 8 µg/mL (≈ 7.93 µM)

CC1C=CC=CC=CC=CC=CC=CC=CC(OC2OC(C)C(O)C(NC(=O)c3ccc(CN)cc3)C2O)CC2OC(O)(CC(O)C(O)CCC(O)CC(O)CC(O)CC(=O)OC(C)C(C)C1O)CC(O)C2C(=O)NCCCN(C)C (stereo not shown) [Compound 35]
MIC Candida albicans ATCC 14053 [2]: 2 µg/mL (≈ 1.75 µM) | MIC Cryptococcus humicolus ATCC 9949 [3]: 2 µg/mL (≈ 1.75 µM) | MIC Aspergillus niger ATCC 16404 [4]: 4 µg/mL (≈ 3.5 µM) | MIC Fusarium oxysporum VKM F-140 [5]: 4 µg/mL (≈ 3.5 µM)

CC1C=CC=CC=CC=CC=CC=CC=CC(OC2OC(C)C(O)C(NC(=O)CN(C)C)C2O)CC2OC(O)(CC(O)C(O)CCC(O)CC(O)CC(O)CC(=O)OC(C)C(C)C1O)CC(O)C2C(=O)NCCCO (stereo not shown) [Compound 39]
MIC Candida albicans ATCC 14053 [2]: 1 µg/mL (≈ 0.938 µM) | MIC Cryptococcus humicolus ATCC 9949 [3]: 1 µg/mL (≈ 0.938 µM) | MIC Aspergillus niger ATCC 16404 [4]: 2 µg/mL (≈ 1.88 µM) | MIC Fusarium oxysporum VKM F-140 [5]: 16 µg/mL (≈ 15 µM)

CC1O[C@@H](O[C@H]2/C=C/C=C/C=C/C=C/C=C/C=C/C=C/[C@H](C)[C@@H](O)[C@@H](C)[C@H](C)OC(=O)C[C@H](O)C[C@H](O)C[C@H](O)CC[C@@H](O)[C@H](O)C[C@]3(O)C[C@H](O)[C@@H](C(=O)NCCN(C)C)[C@H](C2)O3)[C@H](O)C(NC(=O)CN(C)C)[C@@H]1O (stereo partly shown) [Compound 45]
MIC Candida albicans ATCC 14053 [2]: 1 µg/mL (≈ 0.926 µM) | MIC Cryptococcus humicolus ATCC 9949 [3]: 2 µg/mL (≈ 1.85 µM) | MIC Aspergillus niger ATCC 16404 [4]: 1 µg/mL (≈ 0.926 µM) | MIC Fusarium oxysporum VKM F-140 [5]: 4 µg/mL (≈ 3.71 µM)

CC1O[C@@H](O[C@H]2/C=C/C=C/C=C/C=C/C=C/C=C/C=C/[C@H](C)[C@@H](O)[C@@H](C)[C@H](C)OC(=O)C[C@H](O)C[C@H](O)C[C@H](O)CC[C@@H](O)[C@H](O)C[C@]3(O)C[C@H](O)[C@@H](C)[C@H](C2)O3)[C@H](O)C(N)[C@@H]1O.N[C@@H](CC(=O)O)C(=O)O (stereo partly shown) [Compound 55]
MIC Candida albicans ATCC 14053 [2]: 2 µg/mL | MIC Cryptococcus humicolus ATCC 9949 [3]: 2 µg/mL | MIC Aspergillus niger ATCC 16404 [4]: 2 µg/mL | MIC Fusarium oxysporum VKM F-140 [5]: 2 µg/mL
